Columns and labels:
[1] = test system: RPE1 (normal human immortalized retinal pigment epithelial cell line); test: MTT assay on normal cells, RPE1; format: cell-based; settings: RPE-1, RPE1 normal (non-cancer) cell line, read-out: IC50, μM ± SD, RPE1
Experimental: In-vitro antitumor screening
The targeted piperidinecarboxamides 24‒51 were screened for their antitumor properties against HCT116 (colon), MCF7 (breast) and A431 (squamous skin) carcinoma cell lines by the standard mitochondrial dependent reduction of yellow MTT [3-(4,5-dimethylthiazol-2-yl)-2,5-diphenyl-tetrazolium bromide] to purple formazan technique.11 Cells were suspended in McCoy’s 5A medium for HCT116, DMEM for MCF-7 and A431 in addition to 1% antibiotic–antimycotic mixture (10000 μg ml-1 potassium penicillin, 10000 μg ml-1 streptomycin sulfate and 25 μg ml-1 amphotericin B), 10% fetal bovine serum and 1% L-glutamine at 37 °C, under 5% CO2 and 95% humidity. Cells were seeded at concentration of 30000 cells per well in fresh complete growth medium in 96-well tissue culture microtiter plates for 24 h. Media was aspirated, fresh complete medium was added and cells were incubated with different concentrations of the tested compound to give a final concentration of [50, 25, 12.5 and 6.25 μM ([…] and 0.375 μM for the high potent analogues)]. 0.5% DMSO was used as negative control and 5-fluorouracil was used as positive control (standard reference). Triplicate wells were prepared for each individual dose. After 72 h of incubation, medium was aspirated, 40 μl MTT salt (2.5 mg ml-1) were added to each well and incubated for further 4 h at 37 °C.
To stop the reaction and dissolve the formed crystals, 150 μl of 10% sodium dodecyl sulfate (SDS) in deionized water were added to each well and incubated overnight at 37 °C. The absorbance was then measured at 570 nm and a reference wavelength of 595 nm.
Data were collected as mean values for experiments performed in triplicates for each individual dose which had been measured by MTT assay. Control experiments did […]
survival was calculated according to equ. (1).
Surviving fraction = … . (1)
The synthesized compounds 24‒51 were also tested against RPE1 (normal human immortalized retinal pigment epithelial cell line) cell to determine the toxicity/selectivity […]
towards normal cells relative to the carcinoma cell lines utilized. The IC50 (concentration […]
was determined using Graph-Pad PRISM version-5 software. Statistical calculations for determination of the mean and standard error values were determined by SPSS 16 […]
8:1 which is the ratio between the data points and the number of QSAR descriptor).
Human DNA topoisomerase IIα inhibitory properties

[2] = molecular target: T1, human DNA topoisomerase IIα (Homo sapiens, UniProt P11388); test: Human DNA topoisomerase IIα activity assay (TopoGEN kit, plasmid based); format: biochemical
T1 construct: purchased TopoGEN, Inc
T1 sequence (P11388 whole entry): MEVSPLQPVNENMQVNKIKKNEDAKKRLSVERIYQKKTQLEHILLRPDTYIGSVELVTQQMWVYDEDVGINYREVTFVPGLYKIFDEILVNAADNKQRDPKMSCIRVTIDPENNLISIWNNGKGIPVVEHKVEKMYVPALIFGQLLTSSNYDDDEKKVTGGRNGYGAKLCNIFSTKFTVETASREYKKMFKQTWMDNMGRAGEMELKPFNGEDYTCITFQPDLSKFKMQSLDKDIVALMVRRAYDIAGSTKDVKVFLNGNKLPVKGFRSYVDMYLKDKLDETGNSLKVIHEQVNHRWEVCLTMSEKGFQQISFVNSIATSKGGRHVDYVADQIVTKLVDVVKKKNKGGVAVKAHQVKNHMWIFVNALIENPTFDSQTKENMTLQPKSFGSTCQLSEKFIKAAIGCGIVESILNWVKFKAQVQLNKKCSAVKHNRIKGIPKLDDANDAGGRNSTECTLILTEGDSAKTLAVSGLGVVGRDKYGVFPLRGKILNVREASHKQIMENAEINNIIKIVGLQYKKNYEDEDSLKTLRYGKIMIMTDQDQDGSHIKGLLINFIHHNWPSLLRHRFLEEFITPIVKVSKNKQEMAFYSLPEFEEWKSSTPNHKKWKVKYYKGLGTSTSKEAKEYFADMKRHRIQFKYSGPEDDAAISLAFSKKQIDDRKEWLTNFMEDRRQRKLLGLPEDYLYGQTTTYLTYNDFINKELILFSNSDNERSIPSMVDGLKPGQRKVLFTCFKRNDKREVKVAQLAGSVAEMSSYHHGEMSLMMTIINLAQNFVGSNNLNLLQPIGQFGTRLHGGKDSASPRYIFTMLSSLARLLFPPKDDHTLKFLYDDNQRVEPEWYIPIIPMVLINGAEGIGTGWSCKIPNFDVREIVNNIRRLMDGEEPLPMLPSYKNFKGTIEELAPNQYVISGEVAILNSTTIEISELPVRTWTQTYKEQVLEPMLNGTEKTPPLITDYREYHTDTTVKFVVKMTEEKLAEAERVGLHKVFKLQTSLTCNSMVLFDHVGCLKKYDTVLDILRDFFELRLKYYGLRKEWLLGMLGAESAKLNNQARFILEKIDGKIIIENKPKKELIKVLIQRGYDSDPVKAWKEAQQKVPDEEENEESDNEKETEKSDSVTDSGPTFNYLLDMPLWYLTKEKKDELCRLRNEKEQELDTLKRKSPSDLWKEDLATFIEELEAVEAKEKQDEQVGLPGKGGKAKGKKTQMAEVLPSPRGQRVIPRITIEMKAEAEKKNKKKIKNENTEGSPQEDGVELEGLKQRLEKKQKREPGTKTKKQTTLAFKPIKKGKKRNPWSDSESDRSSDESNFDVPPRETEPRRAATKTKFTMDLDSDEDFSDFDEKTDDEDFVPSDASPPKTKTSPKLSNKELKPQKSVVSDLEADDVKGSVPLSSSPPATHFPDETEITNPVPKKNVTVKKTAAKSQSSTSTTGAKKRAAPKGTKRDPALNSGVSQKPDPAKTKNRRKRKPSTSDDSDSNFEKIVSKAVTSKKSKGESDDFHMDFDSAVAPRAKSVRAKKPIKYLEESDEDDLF

[3] = test system: MCF7 (breast) carcinoma cell line; test: MTT anti-proliferative assay, MCF7; format: cell-based; settings: Homo sapiens, MCF7, 72 h; read-out: IC50, μM ± SD, MCF7
[4] = test system: A431 (squamous skin) carcinoma cell line; test: MTT anti-proliferative assay, A431; format: cell-based; settings: Homo sapiens, A-431, 72 h; read-out: IC50, μM ± SD, A431
[5] = test system: HCT116 (colon) carcinoma cell line; test: MTT anti-proliferative assay, HCT116; format: cell-based; settings: Homo sapiens, HCT-116, 72 h; read-out: IC50, μM ± SD, HCT116

Row | IC50 [2] [µM] | IC50 [3] [µM] | IC50 [4] [µM] | IC50 [5] [µM] | melting point [°C] | Structure (SMILES) | IC50 [1] [µM]
1 | 23 ± 1.37 | 1.71 ± 0.12 | 1.31 ± 0.08 | 0.62 ± 0.05 | 189 to 191 | COc1ccc(NC(=O)N2C/C(=C\c3ccc(F)cc3)C(=O)/C(=C/c3ccc(F)cc3)C2)cc1 [Compound 36, 3,5-Bis[(E)-4-fluorobenzylidene]-N-(4-methoxyphenyl)-4-oxopiperidine-1-carboxamide] | 9.46 ± 1.86
2 | 41.3 ± 1.6 | 3.96 ± 0.29 | 2.57 ± 0.15 | 1.44 ± 0.17 | 221 to 223 | Cc1ccc(/C=C2\CN(C(=O)Nc3ccccc3)C/C(=C\c3ccc(C)cc3)C2=O)cc1 [Compound 39, 3,5-Bis[(E)-4-methylbenzylidene]-4-oxo-N-phenylpiperidine-1-carboxamide] | > 50
3 | 26.4 ± 1.61 | 1.36 ± 0.17 | 1.2 ± 0.14 | 0.56 ± 0.06 | 192 to 194 | O=C1/C(=C/c2ccc(F)cc2)CN(C(=O)Nc2ccc(Cl)cc2)C/C1=C\c1ccc(F)cc1 [Compound 35, N-(4-Chlorophenyl)-3,5-bis[(E)-4-fluorobenzylidene]-4-oxopiperidine-1-carboxamide] | 8.26 ± 2.33
4 | 56.2 ± 2.18 | 5.73 ± 0.33 | 8.83 ± 1.26 | 1.5 ± 0.14 | 173 to 175 | CCNC(=O)N1C/C(=C\c2ccc(OC)cc2)C(=O)/C(=C/c2ccc(OC)cc2)C1 [Compound 46, N-Ethyl-3,5-bis[(E)-4-methoxybenzylidene]-4-oxopiperidine-1-carboxamide] | 47.7 ± 3.05
5 | 29 ± 1.39 | 1.33 ± 0.24 | 1.29 ± 0.15 | 0.7 ± 0.06 | 205 to 207 | O=C1/C(=C/c2ccc(Cl)cc2)CN(C(=O)Nc2ccccc2)C/C1=C\c1ccc(Cl)cc1 [Compound 29, 3,5-Bis[(E)-4-chlorobenzylidene]-4-oxo-N-phenylpiperidine-1-carboxamide] | 9.67 ± 2.03
6 | 39.3 ± 1.52 | 5.85 ± 0.31 | 11.3 ± 1.1 | 1.38 ± 0.15 | 212 to 214 | COc1ccc(/C=C2\CN(C(=O)Nc3ccc(OC)cc3)C/C(=C\c3ccc(OC)cc3)C2=O)cc1 [Compound 45, 3,5-Bis[(E)-4-methoxybenzylidene]-N-(4-methoxyphenyl)-4-oxopiperidine-1-carboxamide] | > 50
7 | 30.7 ± 1.32 | 2.34 ± 0.29 | 1.27 ± 0.09 | 0.56 ± 0.04 | 191 to 193 | O=C1/C(=C/c2ccc(F)cc2)CN(C(=O)Nc2ccccc2)C/C1=C\c1ccc(F)cc1 [Compound 34, 3,5-Bis[(E)-4-fluorobenzylidene]-4-oxo-N-phenylpiperidine-1-carboxamide] | 17.5 ± 2.16
